Experimental data: the supplement of paper PMC10307832

Assays:
Test in all cases: relative viability (nuclei count vs DMSO), 5 days (fraction); higher = more cells survive
Idelalisib + Alpelisib = compound: CC[C@H](Nc1ncnc2[nH]cnc12)c1nc2cccc(F)c2c(=O)n1-c1ccccc1 [Idelalisib] + Cc1nc(NC(=O)N2CCC[C@H]2C(N)=O)sc1-c1ccnc(C(C)(C)C(F)(F)F)c1 [Alpelisib] (partner 2 µM)
How it was run: (§1)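 Lung cancer cell lines were pin-tool dosed in 1536-well plates on the day after seeding, with either a lone drug or a fixed anchor-drug dose plus five library-drug doses (not always all listed) in √10 steps. Nuclei were counted on 4× images after 5 days. Relative viability is the ratio of treated-well to vehicle-well nuclei counts, with each value a median of duplicate plates.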

Pemetrexed + Trametinib = compound: Nc1nc2[nH]cc(CCc3ccc(C(=O)N[C@@H](CCC(=O)O)C(=O)O)cc3)c2c(=O)[nH]1 [Pemetrexed] + CC(=O)Nc1cccc(-n2c(=O)n(C3CC3)c(=O)c3c(Nc4ccc(I)cc4F)n(C)c(=O)c(C)c32)c1 [Trametinib] (partner 0.02 µM)
How it was run: as §1

Idelalisib + Pictilisib = compound: CC[C@H](Nc1ncnc2[nH]cnc12)c1nc2cccc(F)c2c(=O)n1-c1ccccc1 [Idelalisib] + CS(=O)(=O)N1CCN(Cc2cc3nc(-c4cccc5[nH]ncc45)nc(N4CCOCC4)c3s2)CC1 [Pictilisib] (partner 1 µM)
How it was run: as §1

Idelalisib + Tozasertib = compound: CC[C@H](Nc1ncnc2[nH]cnc12)c1nc2cccc(F)c2c(=O)n1-c1ccccc1 [Idelalisib] + Cc1cc(Nc2cc(N3CCN(C)CC3)nc(Sc3ccc(NC(=O)C4CC4)cc3)n2)n[nH]1 [Tozasertib] (partner 0.1 µM)
How it was run: as §1

| Cell Line | relative viability (Idelalisib + Alpelisib; first compound 0.04 µM) | relative viability (Idelalisib + Alpelisib; first compound 0.1265 µM) | relative viability (Idelalisib + Alpelisib; first compound 0.4 µM) | relative viability (Idelalisib + Alpelisib; first compound 1.265 µM) | relative viability (Idelalisib + Alpelisib; first compound 4 µM) | relative viability (Pemetrexed + Trametinib; first compound 0.006325 µM) | relative viability (Pemetrexed + Trametinib; first compound 0.02 µM) | relative viability (Pemetrexed + Trametinib; first compound 0.06325 µM) | relative viability (Pemetrexed + Trametinib; first compound 0.2 µM) | relative viability (Idelalisib + Pictilisib; first compound 0.04 µM) | relative viability (Idelalisib + Pictilisib; first compound 0.1265 µM) | relative viability (Idelalisib + Pictilisib; first compound 0.4 µM) | relative viability (Idelalisib + Pictilisib; first compound 1.265 µM) | relative viability (Idelalisib + Pictilisib; first compound 4 µM) | relative viability (Idelalisib + Tozasertib; first compound 0.04 µM) | relative viability (Idelalisib + Tozasertib; first compound 0.1265 µM) | relative viability (Idelalisib + Tozasertib; first compound 0.4 µM) | relative viability (Idelalisib + Tozasertib; first compound 1.265 µM) | relative viability (Idelalisib + Tozasertib; first compound 4 µM) | relative viability (Pemetrexed + Trametinib; first compound 0.002 µM) |
| --- | --- | --- | --- | --- | --- | --- | --- | --- | --- | --- | --- | --- | --- | --- | --- | --- | --- | --- | --- | --- |
| HCC-78 | 0.269 | 0.291 | 0.246 | 0.287 | 0.207 | 0.671 | 0.676 | 0.382 | 0.356 | 0.222 | 0.208 | 0.206 | 0.21 | 0.228 | 0.314 | 0.389 | 0.392 | 0.388 | 0.295 |  |
| HCC-366 | 0.429 | 0.4 | 0.28 | 0.245 | 0.183 | 0.311 | 0.406 | 0.341 | 0.302 | 0.138 | 0.177 | 0.0975 | 0.165 | 0.146 | 0.121 | 0.126 | 0.107 | 0.112 | 0.068 | 0.39 |
| HCC-827 | 0.977 | 0.968 | 0.92 | 0.894 | 0.506 | 0.544 | 0.6 | 0.472 | 0.404 | 0.995 | 1.06 | 1.05 | 1.09 | 0.843 | 0.457 | 0.447 | 0.389 | 0.453 | 0.398 | 0.453 |
| HOP-62 | 1.19 | 1.09 |  | 0.853 | 1.06 | 0.389 | 0.386 | 0.399 | 0.327 | 0.883 | 0.712 |  | 0.649 | 0.792 | 0.415 | 0.408 | 0.392 | 0.436 | 0.326 | 0.431 |
| IA-LM | 0.787 | 0.754 | 0.884 | 0.72 | 0.84 |  |  |  |  | 0.275 | 0.344 | 0.358 | 0.445 | 0.296 |  |  |  |  |  |  |
| LC-2-ad | 0.887 | 0.683 | 0.959 | 0.893 | 0.637 | 0.856 | 0.87 | 0.82 | 0.306 | 0.534 | 0.516 | 0.415 | 0.467 | 0.417 | 0.44 | 0.455 | 0.374 | 0.397 | 0.457 | 0.915 |
| LCLC-97TM1 | 0.274 | 0.211 |  | 0.284 | 0.168 | 0.189 | 0.179 | 0.211 | 0.184 | 0.236 | 0.182 |  | 0.231 | 0.152 | 0.299 | 0.172 | 0.201 | 0.207 | 0.207 | 0.21 |
| LCLC-103H | 1 | 0.914 | 0.744 | 0.868 | 0.926 | 0.639 | 0.734 | 0.698 | 0.677 | 0.756 | 0.63 | 0.517 | 0.586 | 0.574 | 0.505 | 0.48 | 0.425 | 0.472 | 0.308 | 0.659 |
| LK-2 | 1.16 | 1.17 |  | 1.09 | 1.11 | 0.568 | 0.697 | 0.737 | 0.659 | 0.545 | 0.431 |  | 0.534 | 0.586 | 0.178 | 0.165 |  | 0.18 | 0.164 | 0.649 |
| LOU-NH91 | 0.762 | 0.705 | 0.634 | 0.59 | 0.641 | 0.759 | 0.782 | 0.682 | 0.638 | 0.532 | 0.478 | 0.509 | 0.504 | 0.575 | 0.749 | 0.641 | 0.651 | 0.557 | 0.708 | 0.754 |
| LU99A | 0.665 | 0.479 | 0.36 | 0.554 | 0.45 | 0.451 | 0.572 | 0.467 | 0.538 | 0.324 | 0.339 | 0.263 | 0.385 | 0.279 | 0.271 | 0.292 | 0.278 | 0.306 | 0.318 | 0.496 |
| NCI-H522 |  |  |  |  |  | 0.722 | 0.739 | 0.784 | 0.73 |  |  |  |  |  | 0.578 | 0.569 | 0.508 | 0.571 | 0.489 | 0.971 |
| NCI-H1299 | 1.02 | 1.03 | 1.02 | 1.03 | 1.15 |  |  |  |  | 0.764 | 0.758 | 0.833 | 0.973 | 0.606 |  |  |  |  |  |  |
| NCI-H1563 | 0.839 | 1.03 | 0.807 | 0.825 | 0.669 |  |  |  |  | 0.656 | 0.663 | 0.583 | 0.658 | 0.678 |  |  |  |  |  |  |
| NCI-H1623 |  |  |  |  |  |  |  |  |  |  |  |  |  |  | 0.393 | 0.429 | 0.443 | 0.431 | 0.388 |  |
| NCI-H1648 |  |  |  |  |  | 0.292 | 0.63 | 0.398 | 0.442 |  |  |  |  |  | 0.489 | 0.373 | 0.412 | 0.425 | 0.217 | 0.517 |
| NCI-H1650 |  |  |  |  |  | 0.534 | 0.6 | 0.296 | 0.229 | 0.668 | 0.608 | 0.553 | 0.645 | 0.593 | 0.312 | 0.405 | 0.36 | 0.33 | 0.304 | 0.496 |
| NCI-H1703 | 0.37 | 0.304 | 0.273 | 0.272 | 0.207 |  |  |  |  | 0.229 | 0.237 | 0.23 | 0.247 | 0.197 |  |  |  |  |  |  |
| NCI-H1792 | 0.315 | 0.662 | 0.665 | 0.577 | 0.581 | 0.406 | 0.533 | 0.393 | 0.41 | 0.279 | 0.251 | 0.268 | 0.275 | 0.249 |  |  |  |  |  | 0.374 |
| NCI-H2342 |  |  |  |  |  | 0.757 | 0.773 | 0.857 | 0.841 |  |  |  |  |  | 0.44 | 0.556 | 0.44 | 0.455 | 0.397 | 0.763 |
| SW 900 |  |  |  |  |  | 0.793 | 0.928 | 0.67 | 0.549 |  |  |  |  |  | 0.69 | 0.539 | 0.542 | 0.605 | 0.594 | 0.841 |
